From US20120225132A1, “Methods for Increasing the Kinetic Activity of Alcohol, Water and Other Liquids, so as to Render the Liquids More Capable of Enhancing the Alternative Cellular Energy Pathway in the Prevention and Therapy of Diseases” (priority 2011, published 2012) come the findings set out here.

The test concerns ACE pathway. Description: Clinical evaluation of ethanol solutions (with neutral red dye and UV illumination) by the parent of an autistic child. The class given is in vivo. Particulars: standardized protocol.

Consider `CCO` [unprocessed ethanol, ethanol], for which the “clinical response of the child with autism as judged by the parent” value is on record as “still effective”.
